Three molecules from publication PMC3840712, “Enzymatic properties of Thermoanaerobacterium thermosaccharolyticum β-glucosidase fused to Clostridium cellulovorans cellulose binding domain and its application in hydrolysis of microcrystalline cellulose” (BMC Biotechnology, 2013) can be followed below.

Each structure is given as a SMILES string.

Experiment [1] has as its target T1, BGL (Thermoanaerobacterium thermosaccharolyticum, UniProt D9TR57).
T1 construct: gene Tthe_1813
T1 sequence (D9TR57 1-444): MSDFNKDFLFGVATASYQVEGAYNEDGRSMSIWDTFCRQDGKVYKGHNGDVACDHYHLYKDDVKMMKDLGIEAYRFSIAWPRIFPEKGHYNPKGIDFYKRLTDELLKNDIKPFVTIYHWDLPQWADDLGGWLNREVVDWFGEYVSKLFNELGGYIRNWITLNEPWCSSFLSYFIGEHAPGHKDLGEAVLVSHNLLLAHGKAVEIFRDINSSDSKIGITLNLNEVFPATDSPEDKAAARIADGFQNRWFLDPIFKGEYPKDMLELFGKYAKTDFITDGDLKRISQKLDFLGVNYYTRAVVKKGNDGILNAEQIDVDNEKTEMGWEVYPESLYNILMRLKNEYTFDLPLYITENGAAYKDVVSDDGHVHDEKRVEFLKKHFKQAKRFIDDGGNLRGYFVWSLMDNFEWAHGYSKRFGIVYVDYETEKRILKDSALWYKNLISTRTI
Description: pNP release at […] nm, […] inhibition. Type of experiment: biochemical. Particulars: pNPG as substrate, 50 mM citrate pH 6.0, 65°C; K i defined as glucose giving 50% inhibition.

For experiment [2], the target named is T1, BGL. Description: initial rates, cellobiose hydrolysis. Type of experiment: biochemical. Conditions: 50 mM citrate pH 6.0, 65°C.
For experiment [3], the system named is T2, BGL-CBD.
T2 construct: one polypeptide: BGL - PPP linker - C. cellulovorans CBD, pET-20b (NdeI/BamHI/XhoI; pET-BGL-Linker-CBD), Ni-NTA purified, E. coli JM109(DE3), about 69 kDa
Description: initial rates, cellobiose hydrolysis. Type of experiment: biochemical, Thermoanaerobacterium thermosaccharolyticum. Conditions: 50 mM citrate pH 6.0, 65°C. The text has this: initial rates, cellobiose hydrolysis on BGL-CBD

For experiment [4], the target named is T1, BGL. As to the kind of experiment: initial rates, pNP release at […] nm. Type of experiment: biochemical. Conditions: 50 mM citrate pH 6.0, 65°C.
Experiment [5] relates to T2, BGL-CBD. As to the kind of experiment: initial rates, pNP release at […] nm. Type of experiment: biochemical, Thermoanaerobacterium thermosaccharolyticum. Particulars: 50 mM citrate pH 6.0, 65°C.

As for `OC[C@H]1OC(O)[C@H](O)[C@@H](O)[C@@H]1O` (some centres unmarked) [glucose], the K i result at BGL [1] is “The BGL-CBD yielded approximately two times higher K i values for glucose than the BGL”.

Usually Km stands for the substrate concentration at which the rate is half of its maximum. Turning to `OC[C@H]1O[C@@H](O[C@H]2[C@H](O)[C@@H](O)C(O)O[C@@H]2CO)[C@H](O)[C@@H](O)[C@@H]1O` (some centres unmarked) [cellobiose], the results for the Km at BGL [2] and in the experiment on BGL-CBD [3] were 7900 µM and 2620 µM, respectively.

`O=[N+]([O-])c1ccc(O[C@@H]2O[C@H](CO)[C@@H](O)[C@H](O)[C@H]2O)cc1` [p-nitrophenyl-β-D-glucopyranoside]: the results for the Km at BGL [4] and in the experiment on BGL-CBD [5] were 620 µM and 250 µM, respectively.
